Assays:
Format in all cases: cell-based
[1] = test system: Chinese Hamster Lung Epithelial cells (CHL); experiment: MTT cell proliferation, Chinese Hamster Lung Epithelial cells (CHL); details: 48 hours, 0.1 μg/ml; for A570: n = 9, X ± SD
Procedure: (§1) Human lung cancer cell (A549), purchased from cell center of Xiangya School of Medicine, Central South University. Human small cell lung cancer (NCl-H446) and Chinese Hamster Lung Epithelial cells (CHL), purchased from Shanghai Institute of Biochemistry and Cell Biology, Chinese Academy of Sciences. Culture condition: RPMI 1640 medium with 10% bovine serum, 37° C., 5% CO2. Take the logarithmic phase cell for the following experiment.
(§2) Weight 3.8 g KY-1-1 into 10 ml bottle, dissolve with DMSO, and then dilute with normal saline (N.S.) to 300.0 μg/ml, 100.0 μg/ml, 30.0 μg/ml, 10.0 μg/ml, 3.0 μg/ml, 1.0 μg/ml, put into 2 ml EP tube separately, preserve in 4° C.
(§3) Injection Cisplatin (DDP), purchased from Qilu Pharmaceutical Co., Ltd., 10 mg/bottle, batch number 6030052 DB, dissolve with normal saline, dilute to 100.0 μg/ml, 10.0 μg/ml and 1.0 μg/ml.
(§4) Taxol (TAX), purchased from Beijing Sihuan Pharmaceutical Technology Stock Company, 30 mg/5 ml/bottle, batch number 060830, dissolve with normal saline, dilute to 100.0 μg/ml, 10.0 μg/ml and 1.0 μg/ml. • (2) Method
(§5) Preparing suspension of human lung cancer cell (A549), human small cell lung cancer (NCl-H446) and Chinese Hamster Lung Epithelial cells (CHL), adjust to 0.5×10^4 cells/ml, seed in 96-microplate, 180 μl/hole. After cell adhesion (about 12 hours), add sample and control solution 20 μl separately into each hole, adjust the final concentration of KY-1-1 to 0.1 μg/ml, 0.3 μg/ml, 1.0 μg/ml, 3.0 μg/ml, 10.0 μg/ml and 30.0 μg/ml, and the final concentration of DDP and TAX are both 0.1 μg/ml, incubate for 48 hours, and then add MTT (5 mg/ml, MTT:PBS) 20 μl to each hole, incubate for 6 hours, remove the liquid in each hole, and then add DMSO 100 μl to each hole in order to dissolve the purple blue precipitate, then detect the absorbency (A) in 570 nm by an enzyme-labeled instrument EXL-800. Calculate the inhibition ratio (IR) with the following equation: IR(%)=(1−mean of A of dextran group/mean of A of control group)×100%.
(§6) The selective index (SI) of cytotoxicity of the dextran is calculated with the following equation: SI═IC50(CHL cells)/IC50(A549 cells or NCl-H446 cells),
(§7) wherein IC50 is calculated by Calcus Zn procedure.
(§8) Repeat the above experiment twice.
(§9) Experiment data is expressed by X±SD, and use the software SPSS 15.0 Evaluation for windows to carry out One Way ANOVA analysis, and the analysis of variance uses the LSD method and SNK method. The result is compared by Student's test, there is statistic marked difference under the condition of […].

[2] = test system: human small cell lung cancer (NCl-H446); experiment: Anchorage-dependent cell growth capacity, plate cloning method, NCl-H446; details: NCI-H446, plate cloning method, 7 days, 0.1 μg/ml; for Number of Colonies: n = 9, X ± SD
Procedure: as §1
(§10) Preparing suspension of human lung cancer cell (A549) and human small cell lung cancer (NCl-H446), adjust to 0.3×10^3 cells/ml. In each hole, cell suspension […], and sample 0.2 ml, and control solution 0.2 ml. The final concentration of KY-1-1 is 0.1 μg/ml, 0.3 μg/ml, 1.0 μg/ml, 3.0 μg/ml, 10.0 μg/ml and 30.0 μg/ml, and the final concentration of DDP and TAX are both 0.1 μg/ml, add the same volume medium into the control group. Three holes in each group, seed in 24-microplate, incubate in CO2 for 7 days. Add 95% methanol 0.5 ml into each hole, fixed for 15 minutes, and Giemsa staining for 10-30 minutes. The number of cells in a colony is more than 50, or the diameter of the colony is more than 75 μm. Count the number of colonies in each hole, calculate the mean and record it. Calculate the colony inhibition ratio (CIR) with the following equation: CIR(%)=(1−mean of number of colony of dextran group/mean of number of colony of control group)×100%.
(§11) The plate efficiency (PE) is calculated with the following equation: PE=mean of number of colony/number of seeded cells×100%,
as §7, §8, §9

[3] = test system: human small cell lung cancer (NCl-H446); experiment: MTT cell proliferation, human small cell lung cancer (NCl-H446); details: NCI-H446 cells, 48 hours, 0.1 μg/ml; for A570: n = 9, X ± SD
Procedure: as §1, §2, §3, §4, §5, §6, §7, §8, §9

[4] = test system: human small cell lung cancer (NCl-H446); experiment: Anchorage-independent cell growth (cell colony forming capacity in agar), NCl-H446; details: NCI-H446, colony forming in agar, 7 days, 0.1 μg/ml; for Number of Colonies: n = 9, X ± SD
Procedure: as §1
(§12) Take 24-microplate, add 0.6% agar medium 0.5 ml in each hole. Preparing suspension of human lung cancer cell (A549) and human small cell lung cancer (NCl-H446), adjust to 1.6×10^3 cells/ml. In each hole, cell suspension 1.6 ml, and sample 0.2 ml, and control solution 0.2 ml. The final concentration of KY-1-1 is 0.1 μg/ml, 0.3 μg/ml, 1.0 μg/ml, 3.0 μg/ml, 10.0 μg/ml and 30.0 μg/ml, and the final concentration of DDP and TAX are both 0.1 μg/ml. DDP 0.2 ml, and TAX 0.2 ml. Add the same volume medium into the control group. Three holes in each group, after mixing with 0.3% agar 0.2 ml, seed in 24-microplate 0.5 ml/hole, incubate in CO2 for 7 days. The number of cells in a colony is more than 50, or the diameter of the colony is more than 75 μm. Count the number of colonies in each hole, calculate the mean and record it. Calculate the colony inhibition ratio (CIR) with the following equation: CIR(%)=(1−mean of number of colony of dextran group/mean of number of colony of control group)×100%.
as §11, §7, §8, §9

[5] = test system: human lung cancer cell (A549); experiment: Anchorage-dependent cell growth capacity, plate cloning method, A549; details: 7 days, 0.1 μg/ml; for Number of Colonies: n = 9, X ± SD
Procedure: as §1, §10, §11, §7, §8, §9

[6] = test system: human lung cancer cell (A549); experiment: Anchorage-independent cell growth (cell colony forming capacity in agar), A549; details: 7 days, 0.1 μg/ml; for Number of Colonies: n = 9, X ± SD
Procedure: as §1, §12, §11, §7, §8, §9

[7] = test system: human lung cancer cell (A549); experiment: MTT cell proliferation, human lung cancer (A549); details: A549 cells, 48 hours, 0.1 μg/ml; for A570: n = 9, X ± SD
Procedure: as §1, §2, §3, §4, §5, §6, §7, §8, §9

N.N.[Cl][Pt][Cl] [DDP, Cisplatin]
IR (%) [1]: 76.35%
A570 [1]: 1.41 ± 0.30
IR (%) [2]: 78.44%
Number of Colonies [2]: 23.33 ± 4.18
IR (%) [3]: 77.89%
A570 [3]: 0.36 ± 0.03
IR (%) [4]: 75.98%
Number of Colonies [4]: 17.00 ± 2.74
IR (%) [5]: 75.82%
Number of Colonies [5]: 23.89 ± 4.43
IR (%) [6]: 77.05%
Number of Colonies [6]: 14.00 ± 2.00
IR (%) [7]: 76.35%
A570 [7]: 0.37 ± 0.03

CC(=O)O[C@H]1C(=O)[C@@]2(C)[C@H]([C@H](OC(=O)c3ccccc3)[C@]3(O)C[C@H](OC(=O)[C@H](O)[C@@H](NC(=O)c4ccccc4)c4ccccc4)C(C)=C1C3(C)C)[C@]1(OC(C)=O)CO[C@@H]1C[C@@H]2O [TAX, Taxol]
IR (%) [1]: 83.13%
A570 [1]: 1.25 ± 0.14
IR (%) [2]: 82.34%
Number of Colonies [2]: 19.11 ± 2.57
IR (%) [3]: 83.54%
A570 [3]: 0.27 ± 0.01
IR (%) [4]: 84.46%
Number of Colonies [4]: 11.00 ± 1.58
IR (%) [5]: 82.00%
Number of Colonies [5]: 17.78 ± 2.05
IR (%) [6]: 83.61%
Number of Colonies [6]: 10.00 ± 1.87
IR (%) [7]: 83.13%
A570 [7]: 0.27 ± 0.03

From patent publication US8519121B2, “Dextran for treating lung cancer” (Guangzhou Konzern Pharmaceutical Co., Ltd., priority 2008, dated 2013)
